From patent publication US11767313B2, “Compounds as nuclear transport modulators and uses thereof” (XWPHARMA LTD., priority 2018, dated 2023)
Read-outs that look alike come from different tables or passages of the source.

Key:
U251 = assay: CellTiter-Glo cell proliferation assay, U251; type: cell-based; conditions: Homo sapiens, U-251
Protocol: (§1) CellTiter-Glo® Luminescent Cell Viability assay (with Promega CellTiter 96® Luminescent CellTiter-Glo® kit) was used to study the proliferation inhibition by test compounds. Compounds were resuspended in DMSO to make a 25 mM stock suspension. Cells of cancer cell lines or normal tissues were seeded in 96-well plates at 1,500 to 5,000 cells/well overnight. Compounds were 2- or 3-fold diluted serially to obtain 10 concentrations. Then, the drugs were added to the cell wells by Bravo (Agilent) and incubated for 72 hours. The cells were lysed by adding CellTiter-Glo® Reagent (per manufacturer's instructions) and subsequently, the luminescence was read using EnVision® (PerkinElmer).
(§2) The percent of growth was calculated as follows. DMSO-treated cells were employed as vehicle control (High control, HC) and culture medium alone was employed as background (Low control, EC). % growth=100×(Lum sample−Lum EC)/(Lum HC−Lum EC). The ICso was calculated by concentration-response curve fitting using Graphpad Prism.
(§3) Hematological cancer cell lines tested included OCI-AML3, MV-4-11, KG-1, Kasumi-1, K562, THP-1; solid cancer cell lines tested included U87MG, U251, T98G, LN229, A172, H460, H2009, A549; normal cell lines tested included HCN2 and 3T3-L1. […] However, they were not toxic to in vitro cultured normal cells.

LN-229 = assay: CellTiter-Glo cell proliferation assay, LN-229; type: cell-based; conditions: Homo sapiens, LN-229
Protocol: as §1, §2, §3

T98G = assay: CellTiter-Glo cell proliferation assay, T98G; type: cell-based; conditions: Homo sapiens, T98G
Protocol: as §1, §2, §3

XPO1 = XPO1 (Homo sapiens, UniProt O14980); assay: REV-GFP translocation assay in U2OS cells; type: cell-based; set-up: endogenous in cells; host or cells: U2OS cells stably expressing REV-GFP (clones from HD Biosciences); conditions: for IC50: Table 10
XPO1, sequence (O14980 whole entry): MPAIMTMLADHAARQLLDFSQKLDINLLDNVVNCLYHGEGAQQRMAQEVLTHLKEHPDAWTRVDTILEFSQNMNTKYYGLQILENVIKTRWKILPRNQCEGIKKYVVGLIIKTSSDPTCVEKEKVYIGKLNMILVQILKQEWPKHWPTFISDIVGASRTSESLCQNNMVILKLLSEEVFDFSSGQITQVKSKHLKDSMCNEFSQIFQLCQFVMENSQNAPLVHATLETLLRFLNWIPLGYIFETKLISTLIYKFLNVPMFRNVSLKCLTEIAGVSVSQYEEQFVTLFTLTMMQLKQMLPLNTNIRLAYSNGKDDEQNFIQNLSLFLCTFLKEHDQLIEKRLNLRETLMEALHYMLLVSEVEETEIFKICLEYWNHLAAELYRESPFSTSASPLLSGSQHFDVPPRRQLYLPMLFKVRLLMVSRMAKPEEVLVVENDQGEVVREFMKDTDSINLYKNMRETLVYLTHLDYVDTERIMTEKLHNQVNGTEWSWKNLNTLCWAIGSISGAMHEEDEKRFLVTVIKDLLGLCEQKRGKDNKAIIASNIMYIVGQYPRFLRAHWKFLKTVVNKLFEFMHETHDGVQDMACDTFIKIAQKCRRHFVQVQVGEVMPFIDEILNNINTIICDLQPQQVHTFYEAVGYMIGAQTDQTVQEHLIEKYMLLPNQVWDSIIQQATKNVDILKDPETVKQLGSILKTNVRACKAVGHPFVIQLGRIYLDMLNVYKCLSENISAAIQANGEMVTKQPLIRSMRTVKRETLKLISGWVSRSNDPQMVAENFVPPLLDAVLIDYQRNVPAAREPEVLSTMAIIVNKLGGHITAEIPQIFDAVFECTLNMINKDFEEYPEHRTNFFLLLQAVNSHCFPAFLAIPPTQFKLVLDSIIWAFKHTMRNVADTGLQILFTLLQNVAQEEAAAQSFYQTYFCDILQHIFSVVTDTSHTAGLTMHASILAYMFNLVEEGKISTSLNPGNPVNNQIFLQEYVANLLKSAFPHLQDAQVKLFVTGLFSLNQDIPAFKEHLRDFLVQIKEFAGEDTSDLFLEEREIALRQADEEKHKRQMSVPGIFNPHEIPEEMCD
Protocol: LTD in China, and cells were cultured with growth medium. […] The highest Leptomycin B (LMB) concentration was set to 50 nM and serially diluted as the positive control, while the highest concentrations of other compounds were set to 10 μM. The cells treated with various drugs or DMSO, were incubated at 37° C. and 5% CO2 for 1 h. Then, cells were fixed with 4% formaldehyde for 15 min at room temperature. The cells were washed and stained with 100 μL Hoechst 33342 working solution for 10 min at room temperature in dark, after which the cell fluorescence was imaged with the High-Content Imaging System, ImageXpress® (Molecular Devices) using the 20× objective. The filters were set for Hoechst (350/461 nm) and GFP/FITC (488/509 nm) (wavelength for excitation and emission maxima). The % effect of REV nuclear translocation was calculated with the following formula: % effect=([…]- signals from testing compounds; ILMB-signals of 50 nM LMB group; ICTRL-signals of vehicle control group.

Ratio of brain to plasma = type: in vivo; conditions: rats, 10 mg/kg PO
Protocol: (§4) Following collection, brain tissue was rinsed with cold saline, dried on filter paper, weighed and snap-frozen by placing on dry ice. All samples were stored frozen at approximately −80° C. until analysis. At the time of analysis, brain tissue was homogenized (homogenizing solution PBS, pH 7.4), mixed with internal standard in acetonitrile, vortexed, centrifuged, and supernatant was injected for analysis. Concentration of compounds in plasma was determined using LC-MS-MS instrumentation (API 4000, Triple Quadrupole LC/MS/MS Mass Spectrometer). Plasma samples were treated with the identical method (except homogenization step) and the concentration of compound in each matrix was calculated based on generated standard curves.

[1] = Pharmacokinetic profile in plasma; type: in vivo; conditions: P.O., mice
Protocol: (§5) Blood was collected from mice (n=3, or 5) to contribute to the total of 10 time points (pre-dose, 5 min, 15 min, 30 min, 1 hour, 2 hours, 4 hours, 8 hours, 12 hours and 24 hours). At the designated time points, animals were anaesthetized under isoflurane, and approximately 110 μL of blood per time point was collected via retro-orbital puncture into pre-cooled K2EDTA tubes. Blood samples were put on wet ice and centrifuged (2000 g, 5 min at 4° C.) to obtain plasma within 30 minutes of sample collection. All samples were stored frozen at approximately −80° C. until analysis. Prior to analysis, samples were mixed with internal standard in acetonitrile, vortexed, centrifuged, and supernatant was injected for analysis. Concentration of compounds in plasma was determined using LC-MS-MS instrumentation (API 4000, Triple Quadrupole LC/MS/MS Mass Spectrometer). AUC values were calculated using Phoenix Win Nonlin 6.3 software package, PO-Noncompartmental model 200 (extravascular input).

[2] = Pharmacokinetic profile summary; type: in vivo, mice or rats; conditions: for Cmax / AUC: po; for half-life: mice or rats
Protocol: as §5, §4
The pharmacokinetic profile of test compounds in mice or rats was determined from several test compounds was determined using the methods described in Example 22.

[3] = Pharmacokinetic profile in plasma; type: in vivo; conditions: mouse, iv, I. V., mice
U87MG = assay: CellTiter-Glo cell proliferation assay, U87MG; type: cell-based, human; conditions: Homo sapiens, U-87 MG
Protocol: as §1, §2, §3

HCN2 = assay: CellTiter-Glo cell proliferation assay, HCN2 (normal brain); type: cell-based
Protocol: as §1, §2, §3

A-172 = assay: CellTiter-Glo cell viability assay, A-172; type: cell-based; conditions: Homo sapiens, Table 6
Protocol: as §1, §2
The inhibition activity of test compounds was determined in A-172, U87MG and 3T3-L1 cell lines.
A CellTiter-Glo® luminescent cell viability assay was performed s described in Example 1.

3T3 = assay: Cytotoxicity, cell proliferation assay, 3T3; type: cell-based; conditions: Mus musculus, NIH3T3; Table 9
Protocol: as §1, §2
The cytotoxicity of test compounds was also determined in glioblastoma (U87MG)), brain (HCN2) and 3T3 cell lines was determined using the cell proliferation assay as described in Example 19.

Ki67 = assay: PD effects by IHC in U87MG-luc orthotopic model, Ki67; type: in vivo, mice; conditions: orally three times a week for 2 weeks; vs vehicle control
Protocol: (§6) Based on the bioluminescent signal of tumor, mice were randomly assigned to respective groups using a computer-generated randomization procedure, which included vehicle and compound III-treated groups, respectively, with 5 animals per group. Compound III (20 mg/kg) was given orally 3 times a week (on Day 1, 3, 5) for 2 weeks. Animals for IHC study were euthanized at 6 hours after the last dose and perfused with normal saline followed by fixation with 4% paraformaldehyde. Entire brains containing tumors were collected and kept in fixative for 24 hours before proceeding for paraffin block.

3T3-L1 = assay: CellTiter-Glo cell proliferation assay, 3T3-L1 (normal); type: cell-based; conditions: Mus musculus, 3T3-L1; Table 6; read-out: 3T3-L1 IC50
Protocol: as §1, §2, §3

[4] = 25 mg/kg p.o., qod x 3 per week, two weeks; BALB/c Nude mice
C8-B4 = assay: Cytotoxicity, cell proliferation assay, C8-B4; type: cell-based; conditions: Table 8
Protocol: as §1, §2
(§7) The cytotoxicity of test compounds in brain (HCN2), colon cancer (HCT116) and normal colon cell (C8-B4) lines was determined using the cell proliferation assay as described in Example 19.

U87MG cells = assay: Capase-Glo 317 apoptosis assay; type: cell-based; conditions: Homo sapiens, U-87 MG, 72 hours
Protocol: A Capase-Glo® 317 assay was used to determine the apoptosis activity of test compounds in U87MG cells.
Compounds were dissolved in 25 mM DMSO stock solution and serially diluted. DMSO was used as the vehicle control (high control, HC) and culture medium was used as the background (low control LC). The test compounds were applied to plates and spun at 25° C. at 1,000 RPM for 1 min and shaken on a plate shaker for 2 min. Samples (80 nL) of the compounds from the plates were transferred to 384-well cell culture plates using a liquid handler.
Cells were harvested and the cell numbers counted. 40 μL of the cell suspension with the adjusted density was added to 384-well cell culture pates. The final cell density is 1,000 cells/well. Cell culture medium only was used in the low control (LC) samples. The plates were covered with a lid and placed in a 5% CO2 incur at 37° C. for 72 hours.
After incubating for 72 hours, the plates were removed from the incubator and equilibrated at 25° C. for 15 minutes. CellTiter Glo® regen was incubated at 37° C. before the experiments. 40 μL of Capase-Glo® 317 was added into each well to be detected at a 1:1 ratio to culture medium. The plates were then placed at 25° C. for 30 min and read using an EnSpire® Plate Reader.
The % activity remaining was determined using the following formula: % Remaining Activity=[…]×(Lumsample−LumLC)/(LumHC−LUM LC), where HC is obtained from cells treated with 0.1% DMSO only, LC is obtained from culture medium only.

in vivo = conditions: female, BALB/c Nude, mouse
CRM1 = biological target: T1, CRM1 (Homo sapiens, UniProt O14980); assay: PD effects by IHC in U87MG-luc orthotopic model, CRM1; type: in vivo, mice; conditions: orally three times a week for 2 weeks; vs vehicle control
T1 construct: from tissue; host or cells: U87MG-luc orthotopic xenograft tumours in mouse brain
T1 sequence (O14980 whole entry): as above
Protocol: as §6

HCT116 = assay: Cytotoxicity, cell proliferation assay, HCT116 colon cancer; type: cell-based; conditions: Table 8
Protocol: as §1, §2, §7

[5] = Table 11, read-out: Absolute IC50 (μM) U251
[6] = Table 11, read-out: Absolute IC50 (μM) LN-229
[7] = 72 hours, Table 1, read-out: Growth inhibition (IC50)
[8] = Table 11, read-out: Absolute IC50 (μM) T98G
[9] = 10 mg/kg, plasma, 10 mpk, read-out: Cmax (ng/ml) plasma/10 mpk
[10] = Table 9, first value column, read-out: U87MG IC50
[11] = Table 9, second value column, read-out: U87MG IC50

## O=C(/C=C\n1cnc(-c2cc(C(F)(F)F)cc(S(F)(F)(F)(F)F)c2)n1)NNc1ccccn1 [Compound II, (Z)-3-(3-(3-(Pentafluorosulfanyl)-5-(trifluoromethyl)phenyl)-1H-1,2,4-triazol-1-yl)-N′-(pyridin-2-yl)acrylohydrazide]
U251; [5]
  IC50: 2.3 µM
U251; U251, 72 hours, Table 1, read-out: Growth inhibition (IC50)
  IC50: 2.34 µM
LN-229; [6]
  IC50: 0.8 µM
LN-229; [7]
  IC50: 0.805 µM
T98G; [8]
  IC50: 1.9 µM
T98G; [7]
  IC50: 1.92 µM
XPO1; REV-EGFP U2OS cells, 1 h, Table 2, read-out: Rev-GFP/EC50
  EC50: 0.0285 µM
XPO1; first (or only) value of the cell
  IC50: 35.2 nM
XPO1; second value of the cell
  IC50: 21.8 nM
XPO1; Table 13, read-out: Rev-GFP assay/μM
  EC50: 0.035 µM
Ratio of brain to plasma; rat, brain/plasma, 0.25 h
  Kp at 0.25 h: 0.716
Ratio of brain to plasma; rat, brain/plasma, 1 h
  Kp at 1 h: 0.954
Ratio of brain to plasma; rat, brain/plasma, 8 h
  Kp at 8 h: 1.4
Ratio of brain to plasma; 0.25 h
  brain concentration (second number of pair): 301 ng/g
  plasma concentration (first number of pair): 419 ng/g
Ratio of brain to plasma; 1 h
  brain concentration (second number of pair): 1191 ng/g
  plasma concentration (first number of pair): 1274 ng/g
Ratio of brain to plasma; 8 h
  brain concentration (second number of pair): 937 ng/g
  plasma concentration (first number of pair): 677 ng/g
[1]
  AUG0-inf: 13905 ng·h/mL
[1]; mouse, po
  Cmax: 1600 ng/mL
  Tmax: 2 h
  half-life: 4.72 h
[1]; mouse, po, read-out: MRT0-inf
  MRT inf: 7.84 h
[1]; mouse, po, read-out: MRT0-last
  MRT last: 6.9 h
[2]; mouse, brain/plasma, 5 mpk/mice/AUC Ratio, read-out: B/P ratio
  Kp: 1.58
[2]; mouse, 5 mg/kg, 5 mpk/mice, first number of Plasma/brain pair, read-out: Cmax/(ng/mL) Plasma
  Cmax: 1040 ng/mL
[2]; mouse, 5 mg/kg, 5 mpk/mice, second number of Plasma/brain pair, read-out: Cmax/(ng/mL) brain
  Cmax: 1770 ng/mL
[2]; plasma, 10 mg/kg, 10 mpk
  AUC: 4150 ng·h/mL
[2]; plasma
  half-life: 6.9 h
[2]; [9]
  Cmax: 796 ng/mL
[3]
  AUC(0-t): 1620 ng·h/mL
  C0: 558 ng/mL
  clearance: 10 mL/min/kg
  half-life: 3.82 h
[3]; read-out: MRT0-last
  MRT last: 4.76 h
[3]; read-out: Vdss
  Vd: 3.2 L/kg
U87MG; 72 h, U87MG, 72 hours, Table 1, read-out: Growth inhibition (IC50)
  IC50: 630 nM
U87MG; [10]
  IC50: 537 nM
U87MG; [11]
  IC50: 723 nM
HCN2; 72 h, HCN2 normal cell line, 72 hours, Table 1, read-out: Growth inhibition (IC50)
  IC50: 44700 nM
HCN2; Table 9, read-out: HCN2 IC50
  IC50: 44700 nM

## O=C(/C=C\n1cnc(-c2cc(C(F)(F)F)cc(C(F)(F)F)c2)n1)NNc1cnccn1 [KPT-330, (Z)-3-(3-(3,5-bis(trifluoromethyl)phenyl)-1H-1,2,4-triazol-1-yl)-N′-(pyrazin-2-yl)acrylohydrazide, reference compound]
U251; [5]
  IC50: 1 µM
A-172
  IC50: 224 nM
LN-229; [6]
  IC50: 0.3 µM
3T3
  IC50: > 50000 nM
Ki67
  expression of Ki67 in tumors (IHC): significantly decreased
T98G; [8]
  IC50: 0.8 µM
3T3-L1
  IC50: > 50000 nM
[4]
  survival in MTD study: all mice were dead, or anaesthetized for the weight lost up to 20%
C8-B4; C8-B4
  IC50: 1270 nM
C8-B4
  C8-B4 Max % inh: 100%
U87MG cells
  EC50: 12600 nM
U87MG cells; U87MG
  Emax: 398%
In vivo
  MTD: 15 mg/kg
[2]; plasma, 10 mg/kg, 10 mpk
  AUC: 8420 ng·h/mL
[2]; plasma
  half-life: 1.7 h
[2]; [9]
  Cmax: 2520 ng/mL
CRM1
  expression of CRM1 in tumors (IHC): significantly decreased
U87MG; Table 6, read-out: U87MG IC50
  IC50: 129 nM
U87MG; [10]
  IC50: 520 nM
U87MG; [11]
  IC50: 710 nM
HCN2; Table 8
  HCN2 Max % inh: 99%
HCN2; Table 8, read-out: HCN2 IC50
  IC50: 30700 nM
HCN2; Table 9, read-out: HCN2 IC50
  IC50: 34200 nM
HCT116; Homo sapiens, HCT-116
  IC50: 2130 nM
HCT116
  HCT116 Max % inh: 98%
